Results on 25 compounds are retold here after ChEMBL document CHEMBL5316299, “Discovery of Novel Drug-like PHGDH Inhibitors to Disrupt Serine Biosynthesis for Cancer Therapy” (J Med Chem, 2023).

pIC50: −log10 of the molar value.

In one test the test system is MDA-MB-468. Kind of test: Antiproliferative activity against human MDA-MB-468 cells expressing PHGDH assessed as reduction in cell viability measured for 72 hrs by CCK-8 assay. In kind it is functional, cell-based. The following applies: MDA-MB-468, 72 h. In general terms: Tetrazolium assays rely on reduction of a dye to a coloured formazan, in cell work by metabolically active cells.

Test [1] has as its target T1, D-3-phosphoglycerate dehydrogenase (Homo sapiens, UniProt O43175).
T1 sequence (O43175 whole entry): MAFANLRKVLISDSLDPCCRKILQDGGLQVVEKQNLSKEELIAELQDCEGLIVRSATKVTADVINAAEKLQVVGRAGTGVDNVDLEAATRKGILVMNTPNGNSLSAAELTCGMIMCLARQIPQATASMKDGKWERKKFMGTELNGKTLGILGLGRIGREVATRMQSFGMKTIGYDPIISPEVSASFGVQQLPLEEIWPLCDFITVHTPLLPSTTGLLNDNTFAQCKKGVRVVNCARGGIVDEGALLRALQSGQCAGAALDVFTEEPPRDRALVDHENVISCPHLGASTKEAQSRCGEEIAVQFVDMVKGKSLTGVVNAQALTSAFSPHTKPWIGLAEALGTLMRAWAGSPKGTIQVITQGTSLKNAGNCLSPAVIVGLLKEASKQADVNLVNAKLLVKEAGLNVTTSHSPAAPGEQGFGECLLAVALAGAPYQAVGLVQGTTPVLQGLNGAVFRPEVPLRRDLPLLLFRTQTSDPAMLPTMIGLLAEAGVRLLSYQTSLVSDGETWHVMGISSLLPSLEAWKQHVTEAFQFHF
Kind of test: Inhibition of PHGDH (unknown origin) preincubated for 30 mins followed by substrate addition and measured after 5 mins.

For another test, the system named is MCF-10A. Kind of test: Antiproliferative activity against human MCF-10A cells assessed as reduction in cell viability measured for 72 hrs by CCK-8 assay. The format is functional, cell-based.

As usually defined, the pIC50 is the IC50 on a negative log10 scale, so that one unit is a factor of ten. With `O=C(Nc1nc(-c2ccccc2)cs1)c1ccc(S(=O)(=O)O)cc1`, the pIC50 in the test with MDA-MB-468 was less than 4.00; in test [1], 4.90.
Consider `CNC(=O)c1cccc(NS(=O)(=O)c2ccc(C(=O)Nc3nc(-c4ccccc4)cs3)cc2)c1`, for which the results for the pIC50 (in the test with MCF-10A; with MDA-MB-468; in test [1]) were less than 4.00, 4.82 and 5.30, respectively.
Take `CCOC(=O)c1sc(NC(=O)c2ccco2)c(SC#N)c1C`: the pIC50 in the test on MCF-10A is 4.24; in the test on MDA-MB-468 it was 4.68.
`O=C(O)CNS(=O)(=O)c1ccc(C(=O)Nc2nc(-c3ccccc3)cs2)cc1` had a pIC50 in test [1] of 4.80.
Still for that read-out and setting: the result for `CN1CCN(CCNS(=O)(=O)c2ccc(C(=O)Nc3nc(-c4ccccc4)cs3)cc2)CC1` reads 4.94.
For the compound `CC(=O)c1cccc(NS(=O)(=O)c2ccc(C(=O)Nc3nc(-c4ccccc4F)cs3)cc2)c1`, the pIC50 in the test with MCF-10A was 4.20; with MDA-MB-468, 4.18; in test [1], 5.42.
For `O=C(Nc1nc(-c2ccccc2)cs1)c1ccc(S(=O)(=O)Nc2ccccc2)cc1` the same measures were less than 4.00, 4.94 and 5.19.
Compound `O=C(Nc1nc(-c2ccccc2)cs1)c1ccc(S(=O)(=O)NCCN2CCOCC2)cc1` gave a pIC50 in test [1] of 4.96.
As for `O=C(Nc1nc(-c2ccccc2)cs1)c1ccc(S(=O)(=O)Nc2cccc(CCO)c2)cc1`, the pIC50 was 4.03 in the test on MCF-10A, 5.09 with MDA-MB-468 and 5.13 in test [1].
`O=C(Nc1nc(-c2ccccc2)cs1)c1ccc(S(=O)(=O)N2CCC(C(=O)O)CC2)cc1` gave a negative-log IC50 (pIC50) in test [1] of 4.89.
On to `O=C(Nc1nc(-c2ccccc2)cs1)c1ccc(S(=O)(=O)Nc2cccc(CO)c2)cc1`, for which the negative logarithm of the IC50 (pIC50) in the test on MCF-10A was less than 4.00; in the test on MDA-MB-468 it was 5.00; in test [1] it was 5.11.
In test [1], `COCCNS(=O)(=O)c1ccc(C(=O)Nc2nc(-c3ccccc3)cs2)cc1` gave a negative logarithm of the IC50 (pIC50) of 4.75.
On the same count and under the same terms, under `O=C(Nc1nc(-c2ccccc2)cs1)c1ccc(S(=O)(=O)N2CCC(CCO)CC2)cc1` stands 4.91.
Regarding `Cc1cc(C)nc(NS(=O)(=O)c2ccc(C(=O)Nc3nc(-c4ccccc4)cs3)cc2)n1`, the pIC50 was 4.06 in the test on MCF-10A, 4.52 in the test with MDA-MB-468 and 5.50 in test [1].
For `CC(=O)c1cccc(NS(=O)(=O)c2ccc(C(=O)Nc3cc(-c4ccccc4)cs3)cc2)c1`, the pIC50 in test [1] was 4.89.
`CC(=O)c1cccc(NS(=O)(=O)c2ccc(C(=O)Nc3nc(-c4ccccc4)cs3)cc2)c1`: the pIC50 with MCF-10A was less than 4.00; in the test with MDA-MB-468 it was 5.08; in test [1] it was 5.27.
For `O=C(O)Cc1cccc(NS(=O)(=O)c2ccc(C(=O)Nc3nc(-c4ccccc4)cs3)cc2)c1` the same measures were less than 4.00, less than 4.00 and 5.10.
For `CC(=O)N1CCC(NS(=O)(=O)c2ccc(C(=O)Nc3nc(-c4ccccc4)cs3)cc2)CC1` the same measures were less than 4.00, 4.14 and 5.17.
For `CN1CCN(c2cccc(NS(=O)(=O)c3ccc(C(=O)Nc4nc(-c5ccccc5)cs4)cc3)c2)CC1` the same measures were 4.59, 5.01 and 5.21.
With `CC(=O)c1cccc(NS(=O)(=O)c2ccc(C(=O)Nc3nc(-c4ccc(F)c(F)c4)cs3)cc2)c1`, in test [1], the pIC50 is 4.76.
Still for that read-out and setting: under `CC(=O)c1cccc(NS(=O)(=O)c2ccc(C(=O)Nc3nc(-c4ccc(F)cc4F)cs3)cc2)c1` stands 5.17.
For the compound `O=C(O)c1cccc(NS(=O)(=O)c2ccc(C(=O)Nc3nc(-c4ccccc4)cs3)cc2)c1`, the negative logarithm of the IC50 (pIC50) in the test with MCF-10A was less than 4.00; in the test with MDA-MB-468 it was less than 4.00; in test [1], 5.44.
Turning to `CC(=O)c1cccc(NS(=O)(=O)c2ccc(C(=O)Nc3nc(-c4ccc(F)cc4)cs3)cc2)c1`, the pIC50 in the test on MCF-10A is 4.00; with MDA-MB-468, 4.93; in test [1] it was 5.59.
In test [1], `O=C(Nc1nc(-c2ccccc2)cs1)c1ccc(S(=O)(=O)Cl)cc1` had a negative-log IC50 (pIC50) of 4.73.
The same measure, in the same setting: under `CN(C)CCNS(=O)(=O)c1ccc(C(=O)Nc2nc(-c3ccccc3)cs2)cc1` stands 4.80.
